Source: US20240091227A1, “Use Of 2-Phenyl-6-(1H-Imidazol-1-YL) Quinazoline For Treating Neurodegenerative Diseases, Preferably Alzheimer's Disease” (ROTTAPHARM BIOTECH S.R.L., priority 2019, published 2024)

Tested on: Transgenic 5XFAD mice
Experiment: Novel object recognition in transgenic 5XFAD mice model of Alzheimer's disease
Type: in vivo, mouse
Conditions: 30 mg/kg orally once a day for 10 days
From the text: FIG. 6 reports the results of Novel Object Recognition test in transgenic 5XFAD mice model of Alzheimer disease. (Obj C=new object) *p<0.0001, unpaired t Student test.
Transgenic 5XFAD mice, overexpressing the human amyloid precursor protein (APP695) with Swedish (K670N/M671L), Florida (I716V) and London (V717I) familial Alzheimer's disease (FAD) mutations, as well as human Presenilin1 (PS1) with M146L and L286V FAD mutations were used as Alzheimer's disease model. 6 months old female transgenic 5XFAD mice and wild-type controls (WT) were treated orally (gavage) with 30 mg/kg of CR4056 or vehicle once a day for a period of 10 days (n=4 WT/Vehicle, 8 WT/CR4056, 2 5XFAD/Vehicle, and 3 5XFAD/CR4056). Following repeated treatments, hippocampal-dependent memory was tested using the novel object recognition task. The object recognition test measures working and spatial memory. In the training phase, animals were placed in the arena with objects constructed from large plastic bricks. In the testing phase, one object was replaced by a novel object. Animals were returned in the arena and allowed to explore. Exploration of objects was observed and recorded. Mice should recognize that a new object has been placed and therefore explore this object for longer time.

Compound: c1ccc(-c2ncc3cc(-n4ccnc4)ccc3n2)cc1 [CR4056, 2-phenyl-6-(1H-imidazol-1-yl)quinazoline]
- Working and spatial memory, novel object recognition: significant improvement in the working and spatial memory
